From patent US20260035722A1, “METHOD FOR LIQUEFYING AGAROSE AND PRODUCING NEOAGAROTETRAOSE/NEOAGAROHEXAOSE BY USING THERMOSTABLE GH16B BETA-AGARASE DERIVED FROM NOVEL AGAR-DEGRADING BACTERIUM” (Kyungpook National University Industry-Academic Cooperation …, priority 2022, published 2026)

B1: GH16B β-agarase: Thermostable endolytic GH16 family β-agarase (SEQ ID NO: 1, 597 aa, 63.8 kDa) from Cellvibrio sp. KY-GH-1, expressed in E. coli (protein, listed as Cellvibrio sp.)
chain: MKKITSCIAAALLLSAPLASFAADWDSVPIPAAAGTGKTWQLQSISDEFNYTASPTVKPAEFNTRWNPSFINSWTGPGDSEFNAGHSYTSGGSLALQSSAKAGTNKIYTGIISSKETFTYPLYLEARVKHTGNTLANAVWMLSADSTQEIDAMESYGSDRAGQEWFDQRMHVSHHVFIRSPFQDYQPKDEGSWVVNPAGGTWRGAMHVYGVHWKDPWNLDYYIDGVKVRTVSGPAMIDPYNFTNGTGINKPLHIIIDVEHQDWRDVRPTAAELADTSKSIMFVDWIRVYKPVTSSATSSSNSVSSSSSSLSNSSSSSATTVIDFANYFDTGKSTASVAGDTYVGFNKSGSGNINYNTAGDWADYLVTLPSDGQYKIEVTTASPMTSGIGAKLSVDGIYVSTTSLAATGGWELYSASTLANNLSIGAGTHTVRIESTGTSAWQWNGDEIRVTKVGSAPVGSPTTPAPVAMIIQAESFSATGGVYDGFKTYSVNGVSAINYNQRGDWADYAVNVAADGSYTFNAYVSSPMSGAALEVSVDGVKVLTQAVPNNGSWDSFQKVSSASKIALTKGAHTIRVTSAGTTSSTWEWNADKFELIP

How the values were obtained:
GH16B β-agarase = experiment: Agarase activity assay (DNS method): effects of metal ions, reducing agent and EDTA on enzymatic activity; type: biochemical, Cellvibrio sp. KY-GH-1; conditions: for Relative activity (%): relative to untreated control, mean ± SD (n = 3); for Effect on the enzymatic activity: 0.5 to 2.5 mM
Experimental: (§1) Quantitative analysis of GH16B β-agarase activity was performed using the DNS method, which detects reducing sugars released from agarose. The enzyme solution (100 μL) was mixed with an equal volume of 0.8% melted agarose in an appropriate buffer. The content of reducing sugars formed in the reaction mixture was determined colorimetrically using DNS reagent after 30 min of incubation at 50° C. The amount of enzyme that produced reducing power equivalent to 1 μmol of D-galactose per min was defined as one unit of enzymatic activity.
(§2) The optimal temperature was determined using 50 mM Tris-HCl buffer (pH 7.0) for 30 min over a temperature range of 25 to 70° C. The optimal pH was determined using 50 mM Mollvaine buffer ([…] to 7.5) and 50 mM Tris-HCl buffer (pH 7.5 to 10.0). For temperature and pH stability assays, aliquots of enzyme were preincubated at the indicated temperature and pH for the indicated time, and then the relative enzyme activity was measured under standard assay conditions (30 min, 50° C., 50 mM Tris-HCl buffer, pH 7.0). The kinetic parameters of GH16B β-agarase were determined by adding a known amount of the enzyme solution to the agarose substrate solution (1 to 5 mg/mL agarose in 50 mM Tris-HCl, pH 7.0). The Lineweaver-Burk equation, generated via GraphPad Prism 8 statistical package (GraphPad Software Inc., USA), was used to calculate Km and Vmax values. To examine the effects of metal ions, reducing agent, and chelator EDTA on enzymatic activity, various metal ions (CaCl2, CuSO4, KCl, MgCl2, MnCl2, MnSO4, and NaCl), TCEP, or EDTA were used at the indicated concentrations under standard analytical conditions.

[1] = Zymogram for agarase activity on LB agarose plates (Lugol's iodine); type: cell-based, E. coli BL21 (DE3) pLysS transformants; conditions: among transformants expressing GH16A, GH16B, GH16C, GH16D β-agarases
Experimental: E. coli BL21 (DE3) pLysS transformants harboring the recombinant pET-30a plasmid containing GH16A, GH16B, GH16C, or GH16D were spotted onto LB agarose plates (containing 1.5% agarose ((Invitrogen, Life technology, Grand Island, NY, USA), 50 μg/mL chloramphenicol, 25 μg/mL kanamycin, and 0.1 mM IPTG) and then incubated for 3 days at 37° C. The plates were stained with Lugol's at room iodine solution temperature.

[2] = Substrate hydrolysis and agarose liquefaction analysed by TLC and MALDI-TOF/TOF MS; type: biochemical
Experimental: TLC analysis was performed for GH16B β-agarase-catalyzed hydrolysates of agarose, NAOS, or AOS on Silica Gel 60 aluminum plates, which were developed with n-butanol-ethanol-H2O [3:2:2 (v/v)]. To detect oligosaccharides, a visualization solution (containing 0.2% (w/v) naphthoresorcinol, 10% (v/v) H2SO4, ethanol) was sprayed, followed by heating at 80° C. NA2 and the NAOS standard mixture containing NA2-NA18 were used as standards.
MALDI-TOF/TOF MS was performed according to previously described methods to analyze the hydrolytic products of agarose or AOS through enzymatic reactions. The assisted laser desorption/ionization tandem time-of-flight mass spectrometry (MALDI-TOF/TOF MS) was performed in the positive ion reflectron mode using the ultraflextreme system (Bruker Daltonics). The purified reaction product was dissolved in water, 1 μL of the dissolved reaction product was spotted onto a stainless steel target plate, and 0.3 μL of 0.01 M NaCl and […] of 50 mg/mL 2,5-dihydroxybenzoic acid in 50% acetonitrile were added thereto. The spots were rapidly dried under vacuum for homogeneous crystallization. Each acquired spectrum represents the combined signal from 800 laser shots at each of 3 random locations on the spot, totaling 2,400 laser shots, using a 1-kHz laser. The laser attenuator offset and range were set at 68% and 15%, respectively, with the laser focus set at 50%. Mass spectra were recorded over an m/z range of 0 to 5,100. To obtain high-resolution data, the detector sampling rate was set at a maximum of 4.00 giga samples/s, and the detector gain was set at 4.0×. Mass spectra were externally calibrated using maltooligosaccharides isolated from commercial beer. A ladder of hexose polymers, spaced 1 hexose unit (162.053 Da) apart, provided comprehensive coverage of the entire mass acquisition range, enabling the accurate mass calibration of the MALDI-TOF/TOF MS just prior to the sample analysis. Raw MS data were processed with FlexAnalysis software (version 3.3; Bruker Daltonics). […]

[3] = Experimental: as §1
as §2, with “The optimal temperature was determined using 50 mM Tris-HCl buffer (pH 7.0) for 30 min over a temperature range of 25 to 70° C.” left out

[4] = Kinetic parameters of GH16B β-agarase (Lineweaver-Burk, DNS method); type: biochemical; conditions: for agarose
Experimental: as §1, §2

Molecule	Relative activity (%) (GH16B β-agarase; 0.5 mM metal ion/chemical)	Relative activity (%) (GH16B β-agarase; 1.0 mM metal ion/chemical)	Relative activity (%) (GH16B β-agarase; 2.5 mM metal ion/chemical)	Effect on the enzymatic activity (GH16B β-agarase)	further results
O=C(O)CCP(CCC(=O)O)CCC(=O)O [TCEP, tris(2-carboxyethyl)phosphine, reference compound]	100 (±1.55) %	109 (±2.85) %	117 (±6.00) %		Enhancement of enzymatic activity (GH16B β-agarase; 5 to 15 mM TCEP, dose-dependent, 0.8 μg/mL enzyme, 0.4% agarose, pH 7.0, 50° C., 30 min): up to 1.6 fold
O=S(=O)([O-])[O-].[Cu+2] [CuSO4]	103 (±0.25) %	97 (±1.45) %	74%		
[Cl-].[K+] [KCl]	103 (±1.20) %	109 (±6.41) %	104 (±3.45) %	no significant effect	
[Cl-].[Na+] [NaCl]	100 (±0.30) %	109 (±5.33) %	101 (±2.25) %	no significant effect	
[Cl][Mn][Cl] [MnCl2]	125 (±1.40) %	163 (±2.60) %	155 (±3.00) %		
O=S(=O)([O-])[O-].[Mn+2] [MnSO4]	146 (±1.95) %	156 (±0.70) %	156 (±1.90) %		
[Cl-].[Cl-].[Mg+2] [MgCl2]	94 (±2.80) %	107 (±0.80) %	100 (±3.55) %	no significant effect	
[Ca+2].[Cl-].[Cl-] [CaCl2]	96 (±1.80) %	110 (±6.85) %	103 (±0.90) %	no significant effect	
O=C(O)CN(CCN(CC(=O)O)CC(=O)O)CC(=O)O [EDTA, ethylenediamine tetraacetic acid, reference compound]	95 (±4.75) %	95 (±2.02) %	91 (±4.35) %	no significant effect	
B1					Agarose-degrading activity (bright clear zone around the colonies) [1]: highest; Agarose concentration completely hydrolysed into NA4/NA6 ([2]; 1.6 μg/mL enzyme, 1 mM MnCl2, 10 mM TCEP, 50 mM Tris-HCl, pH 7.5, 50° C., 14 hours, magnetic stirring): up to 9.0%; End products of hydrolysis ([2]; AOS substrate): NA4/NA6 but also A5; End products of hydrolysis ([2]; agarose substrate): NA4 and NA6; Optimum pH [3]: 7.0; Optimal temperature (highest activity) ([3]; 0.4% agarose, 0.8 μg/mL enzyme, pH 7.0, 30 min): 50 °C; Maximum activity retained ([3]; over the range of 25 to 60° C.): more than 80%; pH stability ([3]; pH 4): rapidly became inactive; Vmax [4]: 542.0 U/mg; kcat [4]: 576.3 s⁻¹; Km ([4]; 50 mM Tris-HCl, pH 7.0): 14.40 mg/mL
